Test results taken from patent US20250282798A1, “HETEROARYL-SUBSTITUTED BICYCLIC COMPOUND AND USE THEREOF” (Medshine Discovery Inc., priority 2022, published 2025).

How the values were obtained:
Jurkat cells = assay: IL-2 assay of Jurkat cells (ELISA); assay type: cell-based; conditions: CD3/CD28 antibodies, 48 hours
Procedure: The concentration of Jurkat cells growing in the logarithmic phase was adjusted to 1×10^6/mL. 100 μL/well of the cells was taken and plated in a 96-well round-bottom plate coated with CD3 antibodies. The cells were treated with different concentrations of the compounds with the addition of CD28 antibodies for 48 hours. The supernatant of the cell culture was collected, diluted 5-fold, and added to an ELISA plate coated with IL-2. The enzyme-linked immunosorbent assay was performed according to the kit instructions (Dakewe, 1110202). OD570 and OD450 were read with Envision, and the data were analyzed by Prism.

human HPK1 = human HPK1 (Homo sapiens (Human), UniProt Q92918); assay: 33P isotope-labeled kinase activity assay (Method 1); assay type: biochemical; conditions: HPK1 enzyme concentration 8.1 nM; ATP concentration 15 μM
Chain of human HPK1 (Q92918 whole entry): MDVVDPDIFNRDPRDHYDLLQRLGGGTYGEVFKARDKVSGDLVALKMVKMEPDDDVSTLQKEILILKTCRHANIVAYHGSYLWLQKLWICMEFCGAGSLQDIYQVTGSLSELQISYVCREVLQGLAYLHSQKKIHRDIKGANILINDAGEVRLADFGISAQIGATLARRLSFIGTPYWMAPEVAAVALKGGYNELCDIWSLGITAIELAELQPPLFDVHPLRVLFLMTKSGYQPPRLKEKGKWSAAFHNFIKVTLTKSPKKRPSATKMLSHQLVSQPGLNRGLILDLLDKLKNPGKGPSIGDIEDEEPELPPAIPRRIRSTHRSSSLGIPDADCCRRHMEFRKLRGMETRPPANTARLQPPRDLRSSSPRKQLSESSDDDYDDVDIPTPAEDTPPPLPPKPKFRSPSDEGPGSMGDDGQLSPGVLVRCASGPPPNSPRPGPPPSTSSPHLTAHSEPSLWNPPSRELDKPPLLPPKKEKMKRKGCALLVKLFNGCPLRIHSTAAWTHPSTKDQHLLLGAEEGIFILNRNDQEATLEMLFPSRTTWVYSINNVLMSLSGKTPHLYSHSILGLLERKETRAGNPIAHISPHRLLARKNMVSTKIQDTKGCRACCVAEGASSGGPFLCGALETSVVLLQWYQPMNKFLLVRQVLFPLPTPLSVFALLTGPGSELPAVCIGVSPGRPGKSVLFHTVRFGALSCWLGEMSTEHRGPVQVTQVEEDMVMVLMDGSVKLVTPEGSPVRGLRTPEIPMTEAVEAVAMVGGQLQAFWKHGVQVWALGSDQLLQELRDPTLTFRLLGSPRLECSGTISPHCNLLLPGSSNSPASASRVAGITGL
Procedure: Method 1: The IC50 value was assayed by ^33P isotope-labeled kinase activity assay to evaluate the inhibitory ability of a test compound on human HPK1.
Enzyme buffer conditions: 50 mM Hepes (pH 7.5), 10 mM MgCl2, 1 mM EGTA, 0.01% Brij35, 2 mM DTT.
Assay steps: A compound was diluted 3-fold with DMSO in a dilution plate, with a final initial concentration of […] and 10 concentration gradient points. The compound was diluted 50-fold into the kinase reaction buffer, and the mixture was shaken on a shaker for 20 minutes. The kinase was prepared with the enzyme reaction buffer. 2 μL of kinase was added to each well of a reaction plate. 1 μL of the diluted compound in the buffer was added to each well. The plate was sealed with a sealing film, centrifuged at 1000 g for 30 seconds, and placed at room temperature for 10 minutes. The mixed solution of ATP/MBP was prepared with the enzyme reaction buffer. 2 μL of the mixed solution of ATP/MBP was added to the reaction plate. The plate was sealed with a sealing film, and centrifuged at 1000 g for 30 seconds. The mixture in the plate was reacted at room temperature for 60 minutes. […] The plate was incubated at 25° C. for 40 min. […] The plate was incubated at 25° C. for 40 min. The RLU (relative luminescence unit) signal was read with a BMG microplate reader, and the signal intensity was used to characterize the activity of the kinase.

| EC50 (Jurkat cells; Homo sapiens) [nM] | IC50 (human HPK1) [nM] | EC50 (Jurkat cells) [nM] | SMILES |
| --- | --- | --- | --- |
| 320 | 8 | – | CCN1CCN2c3ccc(Nc4ccc(-c5ccnc6c5ccn6C)c5c4C(=O)NC5)nc3OC[C@H]2C1 [Compound 6] |
| – | 3 | 710 | Cn1ccc2c(-c3ccc(Nc4ccc5c(n4)OC[C@H]4CNCCN54)c4c3CNC4=O)ccnc21 [Compound 5] |
